SMILES strings stand for the structures. ± gives the expanded uncertainty stated by the source.

Experimental findings from the NIST ThermoML archive (doi:10.1021/je9003383) are described below.

This data set can be described thus: mn = molality of the nth substance listed, in mol/kg. Particulars: 293.15 K, 101 kPa, Liquid, Vibrating tube method.

Take `CN(CCO)CCO` [N-methyldiethanolamine] + O: the mass density is reported as 1014.8 ± 1 kg/m3 (m1 = 1.867); 1029.6 ± 1 kg/m3 (m1 = 4.118); 1038.8 ± 1 kg/m3 (m1 = 6.189); 1044.8 ± 1 kg/m3 (m1 = 8.119); 1048.6 ± 1.1 kg/m3 (m1 = 10.03); 1051.6 ± 1.1 kg/m3 (m1 = 12.1).

As for `C1CNCCN1` [piperazine] + O, the mass density runs as follows: (m1 = 0.2628) 999.1 ± 1 kg/m3; (m1 = 0.4689) 999.8 ± 1 kg/m3; (m1 = 0.7153) 1000.8 ± 1 kg/m3; (m1 = 0.9675) 1001.8 ± 1 kg/m3; (m1 = 1.268) 1003.1 ± 1 kg/m3; (m1 = 1.448) 1004 ± 1 kg/m3.

Broadly, the mass density is mass per unit of volume.
